Values quoted from earlier work as cited in publication PMC3791449, “Mechanism of amyloid β−protein dimerization determined using single−molecule AFM force spectroscopy” (Scientific Reports, 2013).

System: Aβ(13−23) dimer
Conditions: antiparallel β−sheet structures; cited from earlier work

Substance: Aβ(13−23): Aβ(13−23) peptide of published MD simulations (HHQKLVFFAED; Amyloid-beta protein 42; UniProt P05067 684-694, looked up, fragment)
- dimer stability by MD simulation: high dimer stability
